The values below come from paper PMC3858267, “The Enhanced In Vivo Activity of the Combination of a MEK and a PI3K Inhibitor Correlates with [^18F]-FLT PET in Human Colorectal Cancer Xenograft Tumour-Bearing Mice” (PLoS ONE, 2013).

Molecules are shown by their SMILES.

In data set [1] the test system is HCT116 human tumour xenografts. Briefly: Anti-tumour activity (time to RTV3/RTV4) in HCT116 human tumour xenografts. The data set is classed as in vivo, mice. Conditions: 1 mg/kg PD 0325901, 100 mg/kg GDC-0941, alone or in combination, p.o. once daily for 14 days. The procedure: Animal studies were all carried out using female athymic CD1 nude mice (Charles River, Kent, UK), implanted with HCT116 or HT29 xenografts (1×10^7 cells in 50 µl media injected subcutaneously into the right flank), maintained and handled in isolators under specific pathogen-free conditions.

On the set-up of data set [2]: method as in PMID 18754654, PMID 21838594. As to conditions: in mice; cited from earlier work.
Details of data set [3]: method as in PMID 20332327. As to conditions: single agent; such as retinal vein occlusion; cited from earlier work.
The conditions of data set [4]: rat, in vivo, 100 mg/kg; cited from earlier work.
The conditions of data set [5]: cited from earlier work.

As for `CS(=O)(=O)N1CCN(Cc2cc3nc(-c4cccc5[nH]ncc45)nc(N4CCOCC4)c3s2)CC1` [GDC-0941, 2-(1H-Indazol-4-yl)-6-(4-methanesulfonyl-piperazin-1-ylmethyl)-4-morpholin-4-yl-thieno[3,2-d]pyrimidine], in data set [1], the “Time to RTV3, Mean ± SD” value stood at 15 ± 4 days; the “Time to RTV3, Median ± IR” value was 16 ± 5 days; the “Time to RTV4, Mean ± SD” value worked out at 19 ± 5 days; the “Time to RTV4, Median ± IR” value was found to be 18 ± 4 days. Moreover, the oral bioavailability in data set [2] is 78%.
For `O=C(NOC[C@H](O)CO)c1ccc(F)c(F)c1Nc1ccc(I)cc1F` [PD 0325901], in data set [1], the “Time to RTV3, Mean ± SD” value was determined as 19 ± 7 days; the “Time to RTV3, Median ± IR” value amounted to 18 ± 12 days; the “Time to RTV4, Mean ± SD” value was found to be 23 ± 8 days; the “Time to RTV4, Median ± IR” value is 21 ± 11 days. In addition, the “toxicity in clinical trials” value in data set [3] was “ocular and neurological toxicity”. Moreover, the “toxicity of oral and i.v. doses” value in data set [4] was “non-toxic”. In addition, the maximum tolerated dose in data set [5] is given as 25 mg/kg.
